Assay results as given in ChEMBL document CHEMBL5550161, “Discovery of novel small molecules targeting the USP21/JAK2/STAT3 axis for the treatment of triple-negative breast cancer” (Eur J Med Chem, 2024).
pIC50: −log10 of the molar value. The source made the active and inactive calls. The rule behind the calls is not given here.

What was measured:
[1] = target: T1, Tyrosine-protein kinase JAK2 (Homo sapiens, UniProt O60674); test: Induction of JAK2 degradation in Carfilzomib-treated human HCC1806 cells at 0.4 uM incubated for 24 hrs by Western blot analysis; type: cell-based
[2] = test system: HCC1806; test: Induction of apoptosis in human HCC1806 cells assessed as late apoptotic cells at 1.6 uM incubated for 24 hrs by Annexin V-FITC/PI staining based flow cytometry (reference value: 0.23 %); type: functional
[3] = test system: HCC1806; test: Induction of apoptosis in human HCC1806 cells assessed as necrotic cells at 0.2 uM incubated for 24 hrs by Annexin V-FITC/PI staining based flow cytometry (reference value: 0.15 %); type: functional
[4] = test system: MDA-MB-231; test: Induction of cell cycle arrest at G2/M phase in human MDA-MB-231 cells at 0.1 to 0.4 uM incubated for 24 hrs; type: functional, cell-based; conditions: dose 0.1-0.4 µM
[5] = AUC (0 to infinity) in Sprague-Dawley rat at 4 mg/kg, ip; type: ADME, organism-based; conditions: in vivo
[6] = test system: HCC1806; test: Induction of apoptosis in human HCC1806 cells assessed as decrease in JAK1 level by Western blot analysis; type: functional, cell-based; conditions: dose 0.1-0.4 µM
[7] = test system: MDA-MB-231; test: Induction of apoptosis in human MDA-MB-231 cells assessed as necrotic cells at 0.2 uM incubated for 24 hrs by Annexin V-FITC/PI staining based flow cytometry (reference value: 0.07 %); type: functional
[8] = test system: HCC1806; test: Induction of apoptosis in human HCC1806 cells assessed as decrease in STAT3 phosphorylation at Y705 by Western blot analysis; type: functional, cell-based; conditions: dose 0.1-0.4 µM
[9] = test system: MDA-MB-231; test: Induction of apoptosis in human MDA-MB-231 cells assessed as necrotic cells at 0.1 uM incubated for 24 hrs by Annexin V-FITC/PI staining based flow cytometry (reference value: 0.07 %); type: functional
[10] = test system: HCC1806; test: Anti-proliferative activity against human HCC1806 cells assessed as cell growth inhibition incubated for 72 hrs by MTT assay; type: functional, cell-based; conditions: HCC1806, 72 h
[11] = test system: HCC1806; test: Upregulation of JAK2 mRNA level in human HCC1806 cells at 0.2 uM incubated for 18 to 72 hrs; type: functional, cell-based; conditions: time 18-72 hrs
[12] = Toxicity in Balb/c nude mouse assessed as histopathological change in kidney at 60 mg/kg, ip bid for 14 days consecutively; type: organism-based; conditions: in vivo, 336 h, time 14 day
[13] = test system: HCC1806; test: Induction of apoptosis in human HCC1806 cells assessed as viable cells at 0.8 uM incubated for 24 hrs by Annexin V-FITC/PI staining based flow cytometry (reference value: 98.95 %); type: functional; conditions: read-out: Activity
[14] = test system: Hs-578T; test: Anti-proliferative activity against human Hs-578T cells assessed as cell growth inhibition incubated for 72 hrs by MTT assay; type: functional, cell-based
[15] = test system: MCF7; test: Anti-proliferative activity against human MCF7 cells assessed as cell growth inhibition incubated for 72 hrs by MTT assay; type: functional, cell-based; conditions: MCF7, 72 h
[16] = Cmax in Sprague-Dawley rat at 4 mg/kg, ip; type: ADME, organism-based; conditions: in vivo
[17] = test system: MDA-MB-231; test: Induction of apoptosis in human MDA-MB-231 cells assessed as decrease in STAT3 phosphorylation at Y705 by Western blot analysis; type: functional, cell-based; conditions: dose 0.1-0.4 µM
[18] = test system: HCC1806; test: Effect on UCHL3 level in human HCC1806 cells at 0.1 to 0.4 uM incubated for 24 hrs by Western blot analysis; type: functional, cell-based; conditions: dose 0.1-0.4 µM
[19] = test system: MDA-MB-231; test: Induction of apoptosis in human MDA-MB-231 cells assessed as early apoptotic cells at 0.4 uM incubated for 24 hrs by Annexin V-FITC/PI staining based flow cytometry (reference value: 1.16 %); type: functional
[20] = test system: HCC1806; test: Induction of apoptosis in human HCC1806 cells assessed as decrease in Bcl-2 level by Western blot analysis; type: functional, cell-based; conditions: dose 0.1-0.4 µM
[21] = test system: HCC1806; test: Antitumor activity against human HCC1806 cells xenografted in Balb/c mouse assessed as decrease in Bcl-2 level at 40 to 60 mg/kg, ip bid measured after 14 days by IHC analysis; type: functional, organism-based; conditions: dose 40-60 mg/kg, time 14.0 day
[22] = test system: HCC1806; test: Antitumor activity against human HCC1806 cells xenografted in Balb/c mouse assessed as decrease in STAT3 level at 40 to 60 mg/kg, ip bid measured after 14 days by immunofluorescence based analysis; type: functional, organism-based; conditions: dose 40-60 mg/kg, time 14.0 day
[23] = target: T1, Tyrosine-protein kinase JAK2; test: Induction of JAK2 degradation in human HCC1806 cells at 0.2 uM incubated for 18 to 72 hrs by Western blot analysis; type: cell-based; conditions: time 18-72 hrs
[24] = test system: HCC1806; test: Induction of apoptosis in human HCC1806 cells assessed as ROS production rate at 0.2 uM incubated for 24 hrs by DCFH-DA staining based flow cytometry (reference value: 0.23 %); type: functional
[25] = test system: MDA-MB-231; test: Induction of apoptosis in human MDA-MB-231 cells assessed as necrotic cells at 1.6 uM incubated for 24 hrs by Annexin V-FITC/PI staining based flow cytometry (reference value: 0.07 %); type: functional

T1 sequence (O60674 whole entry): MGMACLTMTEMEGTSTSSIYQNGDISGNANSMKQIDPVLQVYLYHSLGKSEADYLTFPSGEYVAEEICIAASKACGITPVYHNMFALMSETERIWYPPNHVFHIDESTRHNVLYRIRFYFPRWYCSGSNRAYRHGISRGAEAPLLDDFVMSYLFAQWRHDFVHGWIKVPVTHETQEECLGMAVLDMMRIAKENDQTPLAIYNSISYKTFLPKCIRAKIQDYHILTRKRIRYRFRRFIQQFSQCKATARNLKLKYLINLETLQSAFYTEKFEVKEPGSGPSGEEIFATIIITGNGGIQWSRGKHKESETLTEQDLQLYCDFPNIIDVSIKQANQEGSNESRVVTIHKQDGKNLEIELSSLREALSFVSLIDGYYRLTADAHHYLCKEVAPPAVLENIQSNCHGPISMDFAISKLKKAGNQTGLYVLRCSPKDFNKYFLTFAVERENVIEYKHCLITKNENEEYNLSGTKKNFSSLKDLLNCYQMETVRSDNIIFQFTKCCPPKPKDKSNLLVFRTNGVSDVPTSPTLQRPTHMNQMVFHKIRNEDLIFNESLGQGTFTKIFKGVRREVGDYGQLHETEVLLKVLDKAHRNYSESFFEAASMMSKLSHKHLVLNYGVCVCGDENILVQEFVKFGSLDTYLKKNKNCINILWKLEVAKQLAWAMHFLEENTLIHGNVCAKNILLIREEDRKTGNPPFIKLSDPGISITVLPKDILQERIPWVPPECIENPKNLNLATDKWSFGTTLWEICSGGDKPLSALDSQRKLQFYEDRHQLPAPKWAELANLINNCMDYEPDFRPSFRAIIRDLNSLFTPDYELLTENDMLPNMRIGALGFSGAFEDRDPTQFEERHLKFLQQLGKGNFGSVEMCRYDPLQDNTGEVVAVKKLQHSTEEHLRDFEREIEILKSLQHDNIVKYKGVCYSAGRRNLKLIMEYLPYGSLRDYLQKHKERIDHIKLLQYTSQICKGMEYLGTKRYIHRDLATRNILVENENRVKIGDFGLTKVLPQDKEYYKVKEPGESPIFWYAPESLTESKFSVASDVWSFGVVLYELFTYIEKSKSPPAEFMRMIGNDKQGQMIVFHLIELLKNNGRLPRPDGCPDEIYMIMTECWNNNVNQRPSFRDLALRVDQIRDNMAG

## COc1cc(Nc2cc(F)ccc2C(=O)NCCc2c[nH]c3c(F)ccc(F)c23)cc(OC)c1OC
[1]
  Activity: Active
[2]
  Activity: 1.92%
[3]
  Activity: 0.33%
[4]
  Activity: Active
[5]
  AUC(0-inf): 1970 ng·h/mL
[6]
  Activity: Active
[7]
  Activity: 0.19%
[8]
  Activity: Active
[9]
  Activity: 0.19%
[10]
  pIC50: 6.60
[11]
  Activity: Active
[12]
  Activity: Non-Toxic
[13]
  viability at 0.8 µM: 94%
[14]
  pIC50: 6.23
[15]
  pIC50: 5.84
[16]
  Cmax: 229 ng/mL
[17]
  Activity: Active
[18]
  Activity: inactive
[19]
  Activity: 2.31%
[20]
  Activity: Active
[21]
  Activity: Active
[22]
  Activity: Active
[23]
  Activity: Active
[24]
  Activity: 2.3%
[25]
  Activity: 0.09%
